Like-named read-outs stand apart in the source and are kept apart here.
Legend:
[1] = biological target: KRAS WT (Homo sapiens, UniProt P01116+P62937); test: Ras-Raf disruption / FRET / MOA assay (BRAF RBD); format: biochemical; conditions: with Cyclophilin A
Procedure, shortened: (§1)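 TR-FRET in 25 mM HEPES pH 7.3, 100 mM NaCl, 5 mM MgCl2, 0.1% BSA, 0.002% Tween20 with 25 μM Cyclophilin A, 12.5 nM His6-Ras-GMPPNP, 50 nM GST-BRAF RBD; compound 10-point 3-fold series from 30 μM. After 3 h at 25 °C, Eu anti-His/APC anti-GST added for 1.5 h; IC50 from ratio decrease versus DMSO.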

[2] = biological target: KRAS G12D (Homo sapiens, UniProt P01116+P62937, G12D); test: Ras-Raf disruption / FRET / MOA assay (BRAF RBD); format: biochemical; conditions: with Cyclophilin A
Procedure, shortened: as §1

[3] = biological target: NRAS WT (Homo sapiens, UniProt P01111+P62937); test: Ras-Raf disruption / FRET / MOA assay (BRAF RBD); format: biochemical
Procedure, shortened: as §1

[4] = biological target: KRAS G13C (Homo sapiens, UniProt P01116+P62937, G13C); test: Ras-Raf disruption / FRET / MOA assay (BRAF RBD); format: biochemical; conditions: with Cyclophilin A
Procedure, shortened: as §1

[5] = biological target: KRAS G12V (Homo sapiens, UniProt P01116+P62937, G12V); test: Ras-Raf disruption / FRET / MOA assay (BRAF RBD); format: biochemical; conditions: with Cyclophilin A
Procedure, shortened: as §1

[6] = biological target: KRAS G13D (Homo sapiens, UniProt P01116+P62937, G13D); test: Ras-Raf disruption / FRET / MOA assay (BRAF RBD); format: biochemical; conditions: with Cyclophilin A
Procedure, shortened: as §1

[7] = biological target: KRAS G12S (Homo sapiens, UniProt P01116+P62937, G12S); test: Ras-Raf disruption / FRET / MOA assay (BRAF RBD); format: biochemical; conditions: with Cyclophilin A
Procedure, shortened: as §1

[8] = biological target: NRAS Q61R (Homo sapiens, UniProt P01111+P62937, Q61R); test: Ras-Raf disruption / FRET / MOA assay (BRAF RBD); format: biochemical
Procedure, shortened: as §1

[9] = biological target: KRAS Q61H (Homo sapiens, UniProt P01116+P62937, Q61H); test: Ras-Raf disruption / FRET / MOA assay (BRAF RBD); format: biochemical
Procedure, shortened: as §1

[10] = biological target: NRAS G12C (Homo sapiens, UniProt P01111+P62937, G12C); test: Ras-Raf disruption / FRET / MOA assay (BRAF RBD); format: biochemical
Procedure, shortened: as §1

[11] = biological target: NRAS Q61K (Homo sapiens, UniProt P01111+P62937, Q61K); test: Ras-Raf disruption / FRET / MOA assay (BRAF RBD); format: biochemical
Procedure, shortened: as §1

[12] = tested on: NCI-H358 (K-Ras G12C); test: CellTiter-Glo cell viability assay; format: cell-based; conditions: Homo sapiens, NCI-H358, 120 h, read-out: H358 Cell Viability assay data IC50, K-Ras G12C, 5-day treatment
Procedure, shortened: (§2)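 Luminescence from CellTiter-Glo serves as the viability read-out after cells are treated with compound for 5 days. Each well's signal is divided by the DMSO average and multiplied by 100, and curves are fitted by four-parameter logistic regression.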

[13] = tested on: AsPC-1 (K-Ras G12D); test: CellTiter-Glo cell viability assay; format: cell-based; conditions: Homo sapiens, ASPC1, 120 h, read-out: AsPC-1 Cell Viability assay data IC50, K-Ras G12D, 5-day treatment
Procedure, shortened: as §2

[14] = biological target: KRAS G12C (Homo sapiens, UniProt P01116+P62937, G12C); test: Ras-Raf disruption / FRET / MOA assay (BRAF RBD); format: biochemical; conditions: with Cyclophilin A
Procedure, shortened: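 His6-K-Ras G12C-GMPPNP (12.5 nM), GST-BRAF RBD (50 nM) and tagless Cyclophilin A (25 μM) incubated 3 h at 25 °C with compound (10-point 3-fold series from 30 μM), pH 7.3 HEPES buffer. Anti-His Eu/anti-GST APC added for 1.5 h; decreased TR-FRET ratio vs DMSO gives IC50.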

[15] = tested on: AsPC-1 (K-Ras G12D); test: Potency assay: pERK; format: cell-based; conditions: Homo sapiens, ASPC1, read-out: pERK EC50
[16] = KRAS WT FRET data IC50, Ras-Raf disruption
[17] = KRAS G12D FRET data IC50, Ras-Raf disruption
[18] = KRAS G13C FRET data IC50, Ras-Raf disruption
[19] = KRAS G12V FRET data IC50, Ras-Raf disruption
[20] = KRAS G13D FRET data IC50, Ras-Raf disruption
[21] = KRAS G12S FRET data IC50, Ras-Raf disruption
[22] = NRAS G12C FRET data IC50, NRAS G12C
[23] = KRAS G12C FRET data IC50, Ras-Raf disruption

Chain of KRAS Q61H (P01116 1-169 isoform P01116-2 Q61H limits assumed): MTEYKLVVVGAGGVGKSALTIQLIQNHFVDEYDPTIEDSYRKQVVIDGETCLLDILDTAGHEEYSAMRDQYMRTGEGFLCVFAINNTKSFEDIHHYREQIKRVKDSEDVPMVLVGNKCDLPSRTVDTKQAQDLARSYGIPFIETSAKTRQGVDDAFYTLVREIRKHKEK
Chain of KRAS Q61H (P62937 whole entry): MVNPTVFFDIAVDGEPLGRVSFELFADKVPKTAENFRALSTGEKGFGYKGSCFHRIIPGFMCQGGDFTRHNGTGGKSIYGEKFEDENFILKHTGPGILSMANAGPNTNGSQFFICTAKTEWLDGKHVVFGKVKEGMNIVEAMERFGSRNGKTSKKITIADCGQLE
Chain of KRAS WT (P01116 1-169 isoform P01116-2 limits assumed): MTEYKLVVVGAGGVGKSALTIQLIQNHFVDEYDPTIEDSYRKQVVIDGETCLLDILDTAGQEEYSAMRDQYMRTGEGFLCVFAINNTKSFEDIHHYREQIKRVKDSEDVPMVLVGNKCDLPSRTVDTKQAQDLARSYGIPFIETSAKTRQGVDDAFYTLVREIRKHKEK
Chain of KRAS WT (P62937 whole entry): as the sequence (P62937 whole entry) above
Chain of NRAS WT (P01111 whole entry): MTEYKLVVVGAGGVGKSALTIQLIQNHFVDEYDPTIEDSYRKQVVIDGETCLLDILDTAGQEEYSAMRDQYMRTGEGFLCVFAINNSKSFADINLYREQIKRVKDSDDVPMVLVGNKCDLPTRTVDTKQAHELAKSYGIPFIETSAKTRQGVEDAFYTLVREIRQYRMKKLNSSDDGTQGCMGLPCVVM
Chain of NRAS WT (P62937 whole entry): as the sequence (P62937 whole entry) above
Chain of KRAS G12D (P01116 1-169 isoform P01116-2 G12D limits assumed): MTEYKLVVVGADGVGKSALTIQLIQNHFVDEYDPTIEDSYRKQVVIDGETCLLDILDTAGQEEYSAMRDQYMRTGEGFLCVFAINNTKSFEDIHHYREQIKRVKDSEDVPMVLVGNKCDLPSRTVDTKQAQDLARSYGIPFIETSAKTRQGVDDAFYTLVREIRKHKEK
Chain of KRAS G12D (P62937 whole entry): as the sequence (P62937 whole entry) above
Chain of KRAS G12C (P01116 1-169 isoform P01116-2 G12C limits assumed): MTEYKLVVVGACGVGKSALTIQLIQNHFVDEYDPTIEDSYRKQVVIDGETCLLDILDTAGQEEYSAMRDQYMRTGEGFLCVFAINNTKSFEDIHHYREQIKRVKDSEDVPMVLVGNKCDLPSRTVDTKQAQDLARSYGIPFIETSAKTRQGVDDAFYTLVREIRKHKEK
Chain of KRAS G12C (P62937 whole entry): as the sequence (P62937 whole entry) above
Chain of KRAS G13D (P01116 1-169 isoform P01116-2 G13D limits assumed): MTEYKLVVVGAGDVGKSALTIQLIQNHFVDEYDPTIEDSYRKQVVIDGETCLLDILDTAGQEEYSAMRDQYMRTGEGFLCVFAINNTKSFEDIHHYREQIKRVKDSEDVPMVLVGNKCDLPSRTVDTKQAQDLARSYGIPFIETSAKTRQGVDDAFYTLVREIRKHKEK
Chain of KRAS G13D (P62937 whole entry): as the sequence (P62937 whole entry) above
Chain of KRAS G13C (P01116 1-169 isoform P01116-2 G13C limits assumed): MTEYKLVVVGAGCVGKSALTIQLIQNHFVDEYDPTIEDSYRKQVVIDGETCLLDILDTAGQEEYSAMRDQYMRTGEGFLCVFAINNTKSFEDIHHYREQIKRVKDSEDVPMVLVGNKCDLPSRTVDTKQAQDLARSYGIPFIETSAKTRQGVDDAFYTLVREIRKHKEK
Chain of KRAS G13C (P62937 whole entry): as the sequence (P62937 whole entry) above
Chain of KRAS G12V (P01116 1-169 isoform P01116-2 G12V limits assumed): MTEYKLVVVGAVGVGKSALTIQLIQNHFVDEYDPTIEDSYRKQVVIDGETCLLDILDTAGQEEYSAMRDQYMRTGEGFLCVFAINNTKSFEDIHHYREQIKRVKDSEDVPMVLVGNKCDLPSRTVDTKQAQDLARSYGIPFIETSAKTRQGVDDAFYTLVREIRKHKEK
Chain of KRAS G12V (P62937 whole entry): as the sequence (P62937 whole entry) above
Chain of NRAS G12C (P01111 whole entry G12C): as the sequence (P01111 whole entry) above, with G12C counted along it
Chain of NRAS G12C (P62937 whole entry): as the sequence (P62937 whole entry) above
Chain of KRAS G12S (P01116 1-169 isoform P01116-2 G12S limits assumed): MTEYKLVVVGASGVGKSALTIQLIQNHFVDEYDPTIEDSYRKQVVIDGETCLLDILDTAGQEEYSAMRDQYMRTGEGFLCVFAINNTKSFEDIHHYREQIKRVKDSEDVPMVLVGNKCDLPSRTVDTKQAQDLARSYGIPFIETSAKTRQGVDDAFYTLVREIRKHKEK
Chain of KRAS G12S (P62937 whole entry): as the sequence (P62937 whole entry) above
Chain of NRAS Q61K (P01111 whole entry Q61K): as the sequence (P01111 whole entry) above, with Q61K counted along it
Chain of NRAS Q61K (P62937 whole entry): as the sequence (P62937 whole entry) above
Chain of NRAS Q61R (P01111 whole entry Q61R): as the sequence (P01111 whole entry) above, with Q61R counted along it
Chain of NRAS Q61R (P62937 whole entry): as the sequence (P62937 whole entry) above

Row | Structure (SMILES) | IC50 [1, 16] | IC50 [2, 17] | IC50 [3] | IC50 [4, 18] | IC50 [5, 19] | IC50 [6, 20] | IC50 [7, 21] | IC50 [8] | IC50 [9] | IC50 [10, 22] | IC50 [11] | IC50 [12] | IC50 [13] | IC50 [14, 23] | EC50 [15] | further results
1 | CCn1c(-c2cccnc2[C@H](C)OC)c2c3cc(ccc31)-c1cc(O)cc(c1)C[C@H](NC(=O)[C@H](C(C)C)N(C)C(=O)CN(C)C(=O)[C@@H]1N[C@@H]1C1CCC1)C(=O)N1CCC[C@H](N1)C(=O)OCC(C)(C)C2 [Example 287] | 10 to 100 nM | 10 to 100 nM | 10 to 100 nM | 10 to 100 nM | 10 to 100 nM | 100 to 1000 nM | 10 to 100 nM | 100 to 1000 nM | 10 to 100 nM | 10 to 100 nM | 100 to 1000 nM | 10 to 100 nM | 100 to 1000 nM | 10 to 100 nM | < 5000 nM | 
2 | CCn1c(-c2cccnc2[C@H](C)OC)c2c3cc(ccc31)-c1cc(O)cc(c1)C[C@H](NC(=O)[C@H](C(C)C)N(C)C(=O)CN(C)C(=O)[C@H]1CN1CC1(C)COC1)C(=O)N1CCC[C@H](N1)C(=O)OCC(C)(C)C2 (stereo partly drawn) [Example 279] | 10 to 100 nM | 100 to 1000 nM | 10 to 100 nM | 10 to 100 nM | 10 to 100 nM | 100 to 1000 nM | 10 to 100 nM | 100 to 1000 nM | 10 to 100 nM | 10 to 100 nM | 100 to 1000 nM | < 10 nM | 100 to 1000 nM | 10 to 100 nM | < 5000 nM | 
3 | CCn1c(-c2cccnc2[C@H](C)OC)c2c3cc(ccc31)-c1cc(O)cc(c1)C[C@H](NC(=O)[C@H](C(C)C)N(C)C(=O)CN(C)C(=O)[C@@H]1N[C@H]1C1COC1)C(=O)N1CCC[C@H](N1)C(=O)OCC(C)(C)C2 [Example 283] | 10 to 100 nM | 10 to 100 nM | 10 to 100 nM | < 10 nM | 10 to 100 nM | 10 to 100 nM | 10 to 100 nM | 100 to 1000 nM | 10 to 100 nM | 10 to 100 nM | 100 to 1000 nM | 10 to 100 nM | 100 to 1000 nM | 10 to 100 nM | < 5000 nM | 
4 | CCn1c(-c2cccnc2[C@H](C)OC)c2c3cc(ccc31)-c1cc(O)cc(c1)C[C@H](NC(=O)[C@H](C(C)C)N(C)C(=O)CN(C)C(=O)[C@H]1CN1CCCOC(C)=O)C(=O)N1CCC[C@H](N1)C(=O)OCC(C)(C)C2 (stereo partly drawn) [Example 266] | 100 to 1000 nM | 100 to 1000 nM | 100 to 1000 nM | 10 to 100 nM | 100 to 1000 nM | 100 to 1000 nM | 10 to 100 nM | 100 to 1000 nM | 10 to 100 nM | < 10 nM | 100 to 1000 nM | < 10 nM | 100 to 1000 nM | < 10 nM | < 5000 nM | 
5 | CC[C@@H]1N[C@@H]1C(=O)N(C)CC(=O)N(C)[C@H](C(=O)N[C@H]1Cc2cc(O)cc(c2)-c2ccc3c(c2)c(c(-c2cccnc2[C@H](C)OC)n3CC)CC(C)(C)COC(=O)[C@@H]2CCCN(N2)C1=O)C(C)C [Example 263] | 10 to 100 nM | 10 to 100 nM | 10 to 100 nM | 10 to 100 nM | 10 to 100 nM | 10 to 100 nM | 10 to 100 nM | 100 to 1000 nM | 10 to 100 nM | < 10 nM | 100 to 1000 nM | 10 to 100 nM | 100 to 1000 nM | < 10 nM | < 5000 nM | 
6 | CCn1c(-c2cccnc2[C@H](C)OC)c2c3cc(ccc31)-c1cc(O)cc(c1)C[C@H](NC(=O)[C@H](C(C)C)N(C)C(=O)CN(C)C(=O)[C@@H]1CN1C1COC1)C(=O)N1CCC[C@H](N1)C(=O)OCC(C)(C)C2 (stereo partly drawn) [Example 276] | 10 to 100 nM | 10 to 100 nM | 10 to 100 nM | 10 to 100 nM | 10 to 100 nM | 10 to 100 nM | 10 to 100 nM | 100 to 1000 nM | 10 to 100 nM | < 10 nM | 100 to 1000 nM | 10 to 100 nM | 1000 to 10000 nM | 10 to 100 nM | < 5000 nM | 
7 | CCn1c(-c2cccnc2[C@H](C)OC)c2c3cc(ccc31)-c1cc(O)cc(c1)C[C@H](NC(=O)[C@H](C(C)C)N(C)C(=O)CN(C)C(=O)[C@@H]1N[C@@H]1C(F)(F)F)C(=O)N1CCC[C@H](N1)C(=O)OCC(C)(C)C2 [Example 258] | 10 to 100 nM | 10 to 100 nM | < 10 nM | < 10 nM | 10 to 100 nM | 10 to 100 nM | 10 to 100 nM | 10 to 100 nM | < 10 nM | 10 to 100 nM | 10 to 100 nM | 10 to 100 nM | 100 to 1000 nM | 10 to 100 nM | < 5000 nM | 
8 | CCn1c(-c2cccnc2[C@H](C)OC)c2c3cc(ccc31)-c1cc(O)cc(c1)C[C@H](NC(=O)[C@H](C1CCCC1)N1CC[C@]3(CCN(C(=O)[C@@H]4N[C@@H]4C4CC4)C3)C1=O)C(=O)N1CCC[C@H](N1)C(=O)OCC(C)(C)C2 [Example 214, (2S)-2-cyclopentyl-2-((S)-7-((2R,3R)-3-cyclopropylaziridine-2-carbonyl)-1-oxo-2,7-diazaspiro[4.4]nonan-2-yl)-N-((6^3S,4S)-1^1-ethyl-2^5-hydroxy-1^2-(2-((S)-1-methoxyethyl)pyridin-3-yl)-10,10-dimethyl-5,7-dioxo-6^1,6^2,6^3,6^4,6^5,6^6-hexahydro-1^1H-8-oxa-1(5,3)-indola-6(1,3)-pyridazina-2(1,3)-benzenacycloundecaphane-4-yl)acetamide] |  |  |  |  |  |  |  |  |  |  |  | 10 to 100 nM | 10 to 100 nM |  | < 5000 nM | IC50 ([1]; Ras-Raf disruption, read-out: KRAS WT FRET data IC50): 10 to 100 nM; IC50 ([2]; Ras-Raf disruption, read-out: KRAS G12D FRET data IC50): < 10 nM; IC50 ([3]; NRAS WT, read-out: NRAS WT FRET data IC50): 10 to 100 nM; IC50 ([4]; Ras-Raf disruption, read-out: KRAS G13C FRET data IC50): 10 to 100 nM; IC50 ([5]; Ras-Raf disruption, read-out: KRAS G12V FRET data IC50): 10 to 100 nM; IC50 ([6]; Ras-Raf disruption, read-out: KRAS G13D FRET data IC50): 100 to 1000 nM; IC50 ([7]; Ras-Raf disruption, read-out: KRAS G12S FRET data IC50): 10 to 100 nM; IC50 ([8]; NRAS Q61R, read-out: NRAS Q61R FRET data IC50): 100 to 1000 nM; IC50 ([9]; KRAS Q61H, read-out: KRAS Q61H FRET data IC50): 10 to 100 nM; IC50 ([10]; NRAS G12C, read-out: NRAS G12C FRET data IC50): 10 to 100 nM; IC50 ([11]; NRAS Q61K, read-out: NRAS Q61K FRET data IC50): 100 to 1000 nM; IC50 ([14]; Ras-Raf disruption, read-out: KRAS G12C FRET data IC50): 10 to 100 nM
9 | CCn1c(-c2cccnc2[C@H](C)OC)c2c3cc(ccc31)-c1cc(O)cc(c1)C[C@H](NC(=O)[C@H](C(C)C)N(C)C(=O)CN(C)C(=O)[C@H]1CN1CCCC#N)C(=O)N1CCC[C@H](N1)C(=O)OCC(C)(C)C2 (stereo partly drawn) [Example 273] | 10 to 100 nM | 100 to 1000 nM | 10 to 100 nM | 10 to 100 nM | 10 to 100 nM | 100 to 1000 nM | 10 to 100 nM | 100 to 1000 nM | 10 to 100 nM | < 10 nM | 100 to 1000 nM | < 10 nM | 100 to 1000 nM | < 10 nM | < 5000 nM | 
